Test [1] concerns the target T1, SIRT1 (Homo sapiens, UniProt Q96EB6).
T1 sequence (Q96EB6 1-747): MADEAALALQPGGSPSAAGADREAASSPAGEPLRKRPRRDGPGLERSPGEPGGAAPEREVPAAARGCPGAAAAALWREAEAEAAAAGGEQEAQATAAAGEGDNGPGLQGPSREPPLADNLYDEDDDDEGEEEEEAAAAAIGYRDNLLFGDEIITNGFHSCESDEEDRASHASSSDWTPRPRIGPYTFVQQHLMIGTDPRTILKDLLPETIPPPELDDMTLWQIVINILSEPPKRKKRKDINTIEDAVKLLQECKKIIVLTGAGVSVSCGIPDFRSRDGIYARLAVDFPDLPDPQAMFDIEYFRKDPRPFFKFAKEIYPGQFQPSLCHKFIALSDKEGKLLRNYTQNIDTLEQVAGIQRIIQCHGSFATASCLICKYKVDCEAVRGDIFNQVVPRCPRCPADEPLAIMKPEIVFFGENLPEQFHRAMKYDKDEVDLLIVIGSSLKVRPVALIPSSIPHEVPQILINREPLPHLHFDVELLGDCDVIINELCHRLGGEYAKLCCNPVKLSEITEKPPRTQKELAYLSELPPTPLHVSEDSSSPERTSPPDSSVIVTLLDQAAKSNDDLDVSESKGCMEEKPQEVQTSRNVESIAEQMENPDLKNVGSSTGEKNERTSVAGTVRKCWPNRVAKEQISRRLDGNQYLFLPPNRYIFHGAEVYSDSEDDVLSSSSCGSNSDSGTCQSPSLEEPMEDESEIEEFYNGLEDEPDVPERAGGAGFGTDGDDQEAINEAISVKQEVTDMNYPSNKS
The experiment in a line: DMSO tolerance of SIRT1 mass spectrometry assay. It counts as biochemical. On the procedure: To determine the tolerance of the SIRT1 mass spectrometry assay for DMSO, a rate based experiment was performed at multiple concentrations of DMSO.
Formic acid (10 μL of 10%) was added to all of the wells in column 1 of the 96 well assay plate. Eight concentrations of DMSO (40%, 20%, 10%, 5.0%, 2.5%, 1.25%, 0.625%, and 0.313%) were prepared in buffer containing 50 mM Tris HCl pH 8.0, 137 mM, NaCl, 2.7 mM, KCl, 1 mM MgCl2, 5 mM DTT, and 0.05% BSA.
This DMSO titration was prepared by making a 2000 μL solution of 40% DMSO in 50 mM Tris HCl pH 8.0, 137 mM, NaCl, 2.7 mM, KCl, 1 mM MgCl2, 5 mM DTT, and 0.05%. BSA in well A1 of a Costar 2 mL 96 well Assay Block. Dilution Working Solution (1000 μL; 50 mM Tris HCl pH 8.0, 137 mM, NaCl, 2.7 mM, KCl, 1 mM MgCl2, 5 mM DTT, and 0.05% BSA) was added to wells B1, C1, D1, E1, F1, G1 and H1. 1000 μL of the 40% DMSO in buffer solution was transferred from A1 to […] and the solution was mixed 5 times. This process was repeated with wells in column 1 until well H1 was reached.
Using an 8 channel multi-pipette, 50 μl was transferred from column 1 of the 2 mL 96 well assay block to all columns of a 96 well assay plate.
25 μL of Enzyme Working Solution (40 nM SIRT1, 50 mM Tris HCl pH 8.0, 137 mM, NaCl, 2.7 mM, KCl, 1 mM MgCl2, 5 mM DTT, and 0.05% BSA) was prepared and added to each well of the 96-well round bottom assay plate. […]
At 0, 2, 5, 10, 15, 20, 25, 25, 30, 35, 40, 45, and 60 minutes, the reaction was stopped with 10% formic acid and the conversion of substrate to product was determined by mass spectrometry. The activity of SIRT1 at each concentration of DMSO was monitored by comparing the percent conversion of Acetylated Peptide Substrate to Deacetylated Peptide Product over time. […]
Product formation versus time was plotted for each concentration of DMSO tested. The rate was determined by taking the slope from the linear part of the time course. […]

For test [2], the system named is NCI-H358 cells. The experiment in a line: Cellular ATP Assay (ATPLite 1Step normalized to AlamarBlue viability). Particulars: compounds that raised intracellular ATP levels, 48 hours, read-out: ED50 ATP ASSAY. It counts as cell-based, human. On the procedure:
Cellular ATP levels are an indirect measurement of cellular metabolic rates and, by extension, mitochondrial function. […] The ATP assay is combined with a cellular viability assay so that cellular ATP levels can be normalized to viable cells. Cellular ATP levels were measured using the ATPLite 1Step Kit (PerkinElmer) and cellular viability was measured using the cell permeable dye, AlamarBlue™.
The Cellular ATP Assay is a multiplexed assay that measures both ATP levels and viability of a given cell sample. This assay is run in a 96-well Assay Plate and data are reported as the [ATP]/viability for each well in the Assay Plate.
The ATPLite 1Step™ Kit is a single-step luminescent cell-based assay for detection of ATP. The kit contains lyophilized substrate mixture, comprised of D-luciferin and the firefly (Photinus pyralis) enzyme luciferase. Additionally, the kit contains a detergent-based reconstitution buffer that induces the lysis of cellular membranes. The luciferase in the assay mixture catalyzes a reaction between the free cellular ATP and D-luciferin to produce bioluminescence according to the schematic reaction outlined below. […]
The AlamarBlue™ Assay is a single-step assay that utilizes a soluble, non-toxic, cell permeable dye that is added to cell growth media. […] The reduced dye product gives a fluorescent signal which can be monitored with a fluorescence plate reader (excitation 545 nm and emission 575 nm). The amount of fluorescence generated in a given well is proportional to the number of viable cells. […]
In this assay NCI-H358 cells (obtained from the American Tissue Culture Collection, ATCC) were seeded in 96 well microplates (10^4 cells/well). […] Cell microplates were incubated with dye for 2 hours under growth conditions, and fluorescence was subsequently measured using a plate reader. […] Luminescence was then measured using a plate reader. The ATP signal for each well, measured by the luminescence scan, was normalized to its corresponding cell viability value, measured by the fluorescence scan, to generate the average ATP level per viable cell unit (ATP/vCell). […]
A general note: ATP-based viability assays read luminescence as a measure of living cells.

Test [3] addresses T1, SIRT1. Description: SIRT1 mass spectrometry assay (screening for activation). Particulars: for FOLD ACTIVATION MS: activation of SIRT1, mass spectrometry; for EC50: activation of SIRT1, 0.5 μM peptide substrate (SEQ ID NO: 34), 120 μM NAD+, 10 nM SIRT1, 25 min, read-out: ED50 MS ASSAY. It counts as biochemical.

Like-named read-outs stand apart in the source and are kept apart here.

`C[S+](C)[O-]` [DMSO]: the “decrease of SIRT1 enzyme activity” value in test [1] (0.625% DMSO) turned out to be 9.1%; in test [1] (1.25% DMSO), 21%; in test [1] (2.5% DMSO), 36%.

`O=C(NNc1c2ccccc2nc2ccccc12)c1cccnc1` [compound 11]: in test [2] (Homo sapiens, NCI-H358), the EC50 was below 50 µM.

With `Cc1nc(-c2cccc(Nc3nc4ccccc4s3)c2)cs1` [compound 94], in test [3], the “FOLD ACTIVATION MS” value is reported as “B (Fold Activation<250%)” and the EC50 is below 50 µM. Also, the EC50 in test [2] (Homo sapiens, NCI-H358) was above 150 µM.

In the case of `COc1cccc(OC)c1C(=O)Nc1cccc(-c2nc3ccccc3s2)c1` [compound 120], the EC50 in test [2] was below 50 µM.

With `COc1ccc(C(=O)Nc2ccccc2-c2cn3ccccc3n2)c(OC)c1` [compound 265], in test [3], the “FOLD ACTIVATION MS” value is “B (Fold Activation<250%)”.

For the compound `COc1ccc(C(=O)Nc2ccccc2-c2cn3ccccc3n2)cc1OC` [compound 266], in test [3], the “FOLD ACTIVATION MS” value is recorded as “A (Fold activation>250%)” and the EC50 is below 50 µM.

Turning to `COc1cc(C(=O)Nc2ccccc2-c2cn3ccccc3n2)cc(OC)c1OC` [compound 267], in test [3], the “FOLD ACTIVATION MS” value was “B (Fold Activation<250%)” and the EC50 is below 50 µM.

For `CN(C)c1cccc(C(=O)Nc2ccccc2-c2cn3ccccc3n2)c1` [compound 268], in test [3], the “FOLD ACTIVATION MS” value was “B (Fold Activation<250%)” and the EC50 was below 50 µM.

On to `COc1ccc(C(=O)Nc2ccccc2-c2cn3cc(CN4CCNCC4)sc3n2)cc1OC` [compound 270], for which the “FOLD ACTIVATION MS” value in test [3] is recorded as “A (Fold activation>250%)”.

`COc1cc(C(=O)Nc2ccccc2-c2cn3cc(CN4CCNCC4)sc3n2)cc(OC)c1OC` [compound 271]: in test [3], the “FOLD ACTIVATION MS” value was “A (Fold activation>250%)” and the EC50 was below 50 µM.

Turning to `COc1ccc(C(=O)Nc2cccc(-c3nc4cnccc4s3)c2)c(OC)c1` [compound 272], in test [3], the “FOLD ACTIVATION MS” value is listed as “B (Fold Activation<250%)” and the EC50 was below 50 µM.

Take `COc1cc(C(=O)Nc2cccc(-c3nc4cnccc4s3)c2)cc(OC)c1OC` [compound 273]: in test [3], the “FOLD ACTIVATION MS” value is listed as “A (Fold activation>250%)”.

With `COc1ccc(C(=O)Nc2ncccc2-c2nc3ccccc3[nH]2)cc1OC` [compound 276], in test [3], the “FOLD ACTIVATION MS” value was “B (Fold Activation<250%)” and the EC50 was below 50 µM.

Regarding `CC(=O)Nc1ccc(S(=O)(=O)Nc2cccc(-c3nc4ccncc4s3)c2)cc1` [compound 288], the “FOLD ACTIVATION MS” value in test [3] is “B (Fold Activation<250%)”.

On to `COc1ccc(S(=O)(=O)Nc2cccc(-c3nc4ccncc4s3)c2)cc1OC` [compound 289], for which, in test [3], the “FOLD ACTIVATION MS” value was “B (Fold Activation<250%)”.

The record behind these values is patent US8304206B2, “Mass spectrometry assays for identifying compounds that activate deacetylases” (Sirtris Pharmaceuticals, Inc., priority 2005, dated 2012).
